# Measurements taken from patent US12054463B2, “Radiolabeled microtubule imaging compounds and uses thereof” (The Trustees of Columbia University in the City of New York, priority 2017, dated 2024).
# “Also recorded” adds a separate entry of the source.
# Key:
# CB1 = CB1 (Homo sapiens, UniProt P21554); experiment: Affinity to brain targets (panel); format: binding; conditions: CB1: cannabinoid
# mGluR = experiment: Affinity to brain targets (panel); format: binding; conditions: mGluR (mGluRs): metabotropic glutamate receptors
# 5-HT2A = 5-HT2A (Homo sapiens, UniProt P28223); experiment: Affinity to brain targets (panel); format: binding
# D1, D2 = experiment: Affinity to brain targets (panel); format: binding; conditions: D1, D2: dopamine
# PKC = experiment: Affinity to brain targets (panel); format: binding; conditions: PKC: Protein kinase C
# β2 = β2 (Homo sapiens, UniProt P07550); experiment: Affinity to brain targets (panel); format: binding
# panel of kinases = conditions: cited from earlier work
# Ca++ channel = experiment: Affinity to brain targets (panel); format: binding
# H3, H4 = experiment: Affinity to brain targets (panel); format: binding; conditions: H3, H4: histamine
# 5-HT1A = 5-HT1A (Homo sapiens, UniProt P08908); experiment: Affinity to brain targets (panel); format: binding
# Na+ Channel = experiment: Affinity to brain targets (panel); format: binding
# D3 = D3 (Homo sapiens, UniProt P35462); experiment: Affinity to brain targets (panel); format: binding; conditions: D3: dopamine
# EP = experiment: Affinity to brain targets (panel); format: binding; conditions: EP: prostanoid receptors
# NK = experiment: Affinity to brain targets (panel); format: binding; conditions: NK: neurokinin
# H2 = H2 (Homo sapiens, UniProt P25021); experiment: Affinity to brain targets (panel); format: binding; conditions: H2: histamine
# KA = experiment: Affinity to brain targets (panel); format: binding; conditions: KA (KAR): Kainate
# D4 = D4 (Homo sapiens, UniProt P21917); experiment: Affinity to brain targets (panel); format: binding; conditions: D4: dopamine
# NMDA = experiment: Affinity to brain targets (panel); format: binding
# VMAT = experiment: Affinity to brain targets (panel); format: binding; conditions: VMAT (VMAT 1,2): vesicular monoamine transporter
# Sigma1 = Sigma1 (Homo sapiens, UniProt Q99720); experiment: Affinity to brain targets (panel); format: binding
# 5-HT2C = 5-HT2C (Homo sapiens, UniProt P28335); experiment: Affinity to brain targets (panel); format: binding
# I = experiment: Affinity to brain targets (panel); format: binding
# 5-HT1D = 5-HT1D (Homo sapiens, UniProt P28221); experiment: Affinity to brain targets (panel); format: binding
# α2B = α2B (Homo sapiens, UniProt P18089); experiment: Affinity to brain targets (panel); format: binding
# α2A = α2A (Homo sapiens, UniProt P08913); experiment: Affinity to brain targets (panel); format: binding
# V1-2 = experiment: Affinity to brain targets (panel); format: binding; conditions: V1-2: vasopressin
# α1A-1C = experiment: Affinity to brain targets (panel); format: binding
# microtubules (MTs) = conditions: reference 9; cited from earlier work
# Adenosine = experiment: Affinity to brain targets (panel); format: binding; conditions: Adenosine (A)
# MOR = MOR (Homo sapiens, UniProt P35372); experiment: Affinity to brain targets (panel); format: binding; conditions: MOR: mu opioid receptor
# CB2 = CB2 (Homo sapiens, UniProt P34972); experiment: Affinity to brain targets (panel); format: binding; conditions: CB2: cannabinoid
# 5-HT3 = 5-HT3 (Homo sapiens, UniProt P46098); experiment: Affinity to brain targets (panel); format: binding
# AMPA = experiment: Affinity to brain targets (panel); format: binding
# 5-HT1B = 5-HT1B (Homo sapiens, UniProt P28222); experiment: Affinity to brain targets (panel); format: binding
# D5 = D5 (Homo sapiens, UniProt P21918); experiment: Affinity to brain targets (panel); format: binding; conditions: D5: dopamine
# variety of brain targets = experiment: Affinity for a variety of brain targets; format: binding; conditions: variety of brain targets (Table 1), except H4R
# 5-HT1E = 5-HT1E (Homo sapiens, UniProt P28566); experiment: Affinity to brain targets (panel); format: binding
# BZP = experiment: Affinity to brain targets (panel); format: binding; conditions: BZP: benzodiazepine
# NT = experiment: Affinity to brain targets (panel); format: binding; conditions: NT: neurotrophin
# β3 = β3 (Homo sapiens, UniProt P13945); experiment: Affinity to brain targets (panel); format: binding
# 5-HT7 = 5-HT7 (Homo sapiens, UniProt P34969); experiment: Affinity to brain targets (panel); format: binding
# 5-HT2B = 5-HT2B (Homo sapiens, UniProt P41595); experiment: Affinity to brain targets (panel); format: binding
# GABA = experiment: Affinity to brain targets (panel); format: binding
# α2C = α2C (Homo sapiens, UniProt P18825); experiment: Affinity to brain targets (panel); format: binding
# M = experiment: Affinity to brain targets (panel); format: binding; conditions: M: muscarinic
# β1 = β1 (Homo sapiens, UniProt P08588); experiment: Affinity to brain targets (panel); format: binding
# [1] = tested on: prostate cancer (PC3) cells; experiment: In vitro cell uptake; format: cell-based
# MDA-MB-231 cells = experiment: Cell uptake and blocking; format: cell-based
# [2] = log Poct/wat by shake flask method; format: physicochemical; conditions: octanol/water
# Protocol: (§1) The radiochemical synthesis of [^11C] MPC-6827 was optimized and automated on aGE-FX2MeI/FX2M radiochemistry module by alkylating the desmethyl-MPC6827 precursor (6) with [^11C] MeI in DMF using NaOH. [^11C] MPC-6827 was produced with a radiochemical yield (RCY) of 40%, in >99% radiochemical purity and a specific activity of 2+0.5 Ci/μmol (decay corrected to end of synthesis (EOS)). The radioligand was stable in 5% ethanol-saline formulation for 4 h and the log Poct/wat was estimated as 3.8 by shake flask method.
# [3] = tested on: glioblastoma (GBM) U251 cells; experiment: In vitro cell uptake; format: cell-based
# [4] = tested on: tau-overexpressing rTg4510 mice; experiment: MicroPET in AD animal model rTg4510; format: in vivo; conditions: 9-month old
# From the text: MicroPET studies with 9-month old, tau-overexpressing rTg4510 mice (Alzheimer disease-tau pathology) show ˜35% lower binding of [^11C]MPC-6827 brain activity in comparison to the control mice (FIGS. 12 and 13).
# [5] = tested on: amyloid overexpressing 5×FAD-AD mice; experiment: MicroPET in AD animal model 5×FAD; format: in vivo; conditions: 15 month-old
# From the text: In vivo imaging of [^11C]MPC-6827 in amyloid overexpressing 5×FAD-AD mice (15 month-old) show 40% lower binding of radiotracer in the whole brain model in comparison to the wild type controls (FIGS. 10 and 11). The tracer binding in frontal and mid brain regions show significant lower binding than whole brain in comparison to wild type mice.
# glioblastoma PDX cells = experiment: In vitro cell uptake; format: cell-based
# brain MT [6] = experiment: MicroPET in athymic nude male mice; format: in vivo
# Protocol: (§2) Biodistribution of [^11C] […] The time-activity curves were expressed in g/mL normalized to the injected dose corrected for weight, to obtain standardized uptake values (SUVs). The brain SUV of [^11C] […] The heart, blood and muscles also show binding to [^11C] MPC-6827 and are consistent with known distribution of MTs in these organs. […] The lungs show higher uptake up to 30 minutes, followed by washout. 70% specific binding in brain was established at 30 minutes prior to the injection of radiotracer with 5 mg/kg MPC-6827 (FIG. 2) in mice.
# Radioligand binding in thyroid gland, is also displaced during the blocking experiments.^21-23
# rat brain = experiment: MicroPET in rat; format: in vivo
# [7] = Stability in 5% ethanol-saline formulation; format: physicochemical
# Protocol: as §1
# brain MT [8] = experiment: Biodistribution in white male mice; format: in vivo
# Protocol: as §2
# α2C, sequence (P18825 whole entry): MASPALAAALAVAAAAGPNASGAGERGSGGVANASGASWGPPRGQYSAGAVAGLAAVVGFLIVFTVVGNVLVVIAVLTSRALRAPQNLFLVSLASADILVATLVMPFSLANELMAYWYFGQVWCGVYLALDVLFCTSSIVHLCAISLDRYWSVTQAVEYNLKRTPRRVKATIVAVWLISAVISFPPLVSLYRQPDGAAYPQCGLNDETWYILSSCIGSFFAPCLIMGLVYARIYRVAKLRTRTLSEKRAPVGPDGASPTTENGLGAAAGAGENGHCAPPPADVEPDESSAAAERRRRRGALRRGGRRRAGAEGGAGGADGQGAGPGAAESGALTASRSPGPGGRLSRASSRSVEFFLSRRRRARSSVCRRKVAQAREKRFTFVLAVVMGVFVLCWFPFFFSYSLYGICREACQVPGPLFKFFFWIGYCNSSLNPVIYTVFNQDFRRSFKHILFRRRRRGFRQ
# β3, sequence (P13945 whole entry): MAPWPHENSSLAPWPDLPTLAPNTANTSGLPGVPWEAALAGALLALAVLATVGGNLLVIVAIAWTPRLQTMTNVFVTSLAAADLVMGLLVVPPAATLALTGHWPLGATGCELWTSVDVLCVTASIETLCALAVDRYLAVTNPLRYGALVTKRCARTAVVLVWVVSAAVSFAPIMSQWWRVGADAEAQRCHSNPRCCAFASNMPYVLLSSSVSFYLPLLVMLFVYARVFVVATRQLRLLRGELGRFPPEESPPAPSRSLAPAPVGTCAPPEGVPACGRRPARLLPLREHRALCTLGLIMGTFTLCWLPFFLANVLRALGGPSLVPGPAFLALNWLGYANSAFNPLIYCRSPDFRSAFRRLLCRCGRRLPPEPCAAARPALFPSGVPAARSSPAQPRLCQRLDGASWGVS
# MOR, sequence (P35372 whole entry): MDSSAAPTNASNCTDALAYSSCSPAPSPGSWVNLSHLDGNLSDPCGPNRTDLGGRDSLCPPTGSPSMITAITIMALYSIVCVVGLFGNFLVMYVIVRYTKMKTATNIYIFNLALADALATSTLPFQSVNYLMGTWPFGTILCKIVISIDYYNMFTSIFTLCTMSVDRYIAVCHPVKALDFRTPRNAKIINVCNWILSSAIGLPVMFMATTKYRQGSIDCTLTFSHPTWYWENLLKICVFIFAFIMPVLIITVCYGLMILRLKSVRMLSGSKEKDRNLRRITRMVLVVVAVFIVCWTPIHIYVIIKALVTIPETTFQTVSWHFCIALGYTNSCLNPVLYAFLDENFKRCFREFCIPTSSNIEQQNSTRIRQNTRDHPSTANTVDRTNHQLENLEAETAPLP
# 5-HT2A, sequence (P28223 whole entry): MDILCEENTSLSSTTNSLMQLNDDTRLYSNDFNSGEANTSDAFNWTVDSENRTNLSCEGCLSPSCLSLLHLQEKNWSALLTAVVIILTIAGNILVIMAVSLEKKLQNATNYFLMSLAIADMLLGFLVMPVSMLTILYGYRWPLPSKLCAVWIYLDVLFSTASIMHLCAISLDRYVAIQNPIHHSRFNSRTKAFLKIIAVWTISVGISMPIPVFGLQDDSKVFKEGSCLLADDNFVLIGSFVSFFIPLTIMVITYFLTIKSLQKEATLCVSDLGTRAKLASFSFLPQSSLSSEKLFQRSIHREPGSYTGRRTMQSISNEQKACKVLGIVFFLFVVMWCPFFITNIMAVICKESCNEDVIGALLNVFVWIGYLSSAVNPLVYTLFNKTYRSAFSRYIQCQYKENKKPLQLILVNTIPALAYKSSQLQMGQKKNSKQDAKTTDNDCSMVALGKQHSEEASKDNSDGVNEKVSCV
# 5-HT2B, sequence (P41595 whole entry, species assumed): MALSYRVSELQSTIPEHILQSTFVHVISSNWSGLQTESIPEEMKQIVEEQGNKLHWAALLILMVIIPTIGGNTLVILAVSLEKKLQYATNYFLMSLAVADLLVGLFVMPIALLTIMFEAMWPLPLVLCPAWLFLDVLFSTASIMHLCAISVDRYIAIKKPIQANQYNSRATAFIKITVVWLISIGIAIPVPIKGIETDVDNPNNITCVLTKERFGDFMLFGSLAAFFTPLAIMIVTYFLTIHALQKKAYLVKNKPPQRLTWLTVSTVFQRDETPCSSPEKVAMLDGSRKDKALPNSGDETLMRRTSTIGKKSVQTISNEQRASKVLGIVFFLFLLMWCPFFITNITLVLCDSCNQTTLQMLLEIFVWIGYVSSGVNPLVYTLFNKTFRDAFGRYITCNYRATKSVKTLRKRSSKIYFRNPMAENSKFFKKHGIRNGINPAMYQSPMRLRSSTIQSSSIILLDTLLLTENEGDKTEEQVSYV
# 5-HT1B, sequence (P28222 whole entry, species assumed): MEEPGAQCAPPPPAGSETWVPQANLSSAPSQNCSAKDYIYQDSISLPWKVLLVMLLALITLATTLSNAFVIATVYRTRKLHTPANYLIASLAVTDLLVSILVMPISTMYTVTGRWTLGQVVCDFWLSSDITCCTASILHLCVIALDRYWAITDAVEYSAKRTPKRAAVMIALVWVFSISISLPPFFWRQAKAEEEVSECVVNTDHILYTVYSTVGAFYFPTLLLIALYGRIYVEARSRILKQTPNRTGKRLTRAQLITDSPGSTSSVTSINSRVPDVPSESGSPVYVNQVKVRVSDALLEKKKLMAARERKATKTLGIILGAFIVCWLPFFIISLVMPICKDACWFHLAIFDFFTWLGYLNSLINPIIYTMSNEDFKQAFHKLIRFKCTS
# CB2, sequence (P34972 whole entry, species assumed): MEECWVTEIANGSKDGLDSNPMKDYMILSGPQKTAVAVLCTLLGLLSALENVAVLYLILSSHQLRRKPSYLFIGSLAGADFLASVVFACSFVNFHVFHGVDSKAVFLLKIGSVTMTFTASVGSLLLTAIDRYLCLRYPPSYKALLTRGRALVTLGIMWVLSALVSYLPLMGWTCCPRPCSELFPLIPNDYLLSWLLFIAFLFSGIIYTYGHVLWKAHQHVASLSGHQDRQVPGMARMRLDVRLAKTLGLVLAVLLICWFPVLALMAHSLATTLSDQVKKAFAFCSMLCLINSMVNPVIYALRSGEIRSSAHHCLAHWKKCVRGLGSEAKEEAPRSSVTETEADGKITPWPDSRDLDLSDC
# α2A, sequence (P08913 whole entry): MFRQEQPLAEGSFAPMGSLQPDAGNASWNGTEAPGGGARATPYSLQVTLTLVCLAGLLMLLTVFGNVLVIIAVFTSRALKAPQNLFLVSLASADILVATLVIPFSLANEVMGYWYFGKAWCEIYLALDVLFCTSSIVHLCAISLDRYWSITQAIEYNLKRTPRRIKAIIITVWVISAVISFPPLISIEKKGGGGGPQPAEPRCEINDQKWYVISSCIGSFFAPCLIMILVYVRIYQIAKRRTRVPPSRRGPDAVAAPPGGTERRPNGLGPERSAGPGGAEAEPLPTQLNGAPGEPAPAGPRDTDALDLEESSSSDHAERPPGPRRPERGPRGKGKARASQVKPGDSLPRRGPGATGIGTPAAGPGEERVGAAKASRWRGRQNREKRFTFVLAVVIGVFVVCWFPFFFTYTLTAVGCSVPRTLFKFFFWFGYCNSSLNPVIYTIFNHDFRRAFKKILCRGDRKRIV
# 5-HT1A, sequence (P08908 whole entry, species assumed): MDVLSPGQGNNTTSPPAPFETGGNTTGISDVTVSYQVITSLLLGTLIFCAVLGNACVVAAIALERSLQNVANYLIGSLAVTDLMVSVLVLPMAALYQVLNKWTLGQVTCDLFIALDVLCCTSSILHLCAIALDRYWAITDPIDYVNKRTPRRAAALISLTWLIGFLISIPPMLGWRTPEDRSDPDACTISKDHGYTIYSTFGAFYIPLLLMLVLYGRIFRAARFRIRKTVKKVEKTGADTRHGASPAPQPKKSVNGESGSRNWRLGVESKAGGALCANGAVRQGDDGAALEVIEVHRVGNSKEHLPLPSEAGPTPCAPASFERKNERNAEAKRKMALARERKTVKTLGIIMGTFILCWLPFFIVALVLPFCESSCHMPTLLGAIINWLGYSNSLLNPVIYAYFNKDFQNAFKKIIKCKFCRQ
# 5-HT3, sequence (P46098 24-478, species assumed): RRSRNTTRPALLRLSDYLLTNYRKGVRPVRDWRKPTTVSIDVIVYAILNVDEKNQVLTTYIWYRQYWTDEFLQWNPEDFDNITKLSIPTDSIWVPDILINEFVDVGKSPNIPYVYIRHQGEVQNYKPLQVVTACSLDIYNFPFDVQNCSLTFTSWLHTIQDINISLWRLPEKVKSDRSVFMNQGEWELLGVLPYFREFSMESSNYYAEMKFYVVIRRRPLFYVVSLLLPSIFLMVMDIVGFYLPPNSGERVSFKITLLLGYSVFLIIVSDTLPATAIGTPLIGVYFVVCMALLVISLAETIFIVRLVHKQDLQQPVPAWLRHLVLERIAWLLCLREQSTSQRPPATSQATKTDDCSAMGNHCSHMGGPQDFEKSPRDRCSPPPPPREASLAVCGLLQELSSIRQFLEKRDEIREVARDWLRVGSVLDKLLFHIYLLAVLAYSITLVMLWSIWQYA
# 5-HT7, sequence (P34969 whole entry, species assumed): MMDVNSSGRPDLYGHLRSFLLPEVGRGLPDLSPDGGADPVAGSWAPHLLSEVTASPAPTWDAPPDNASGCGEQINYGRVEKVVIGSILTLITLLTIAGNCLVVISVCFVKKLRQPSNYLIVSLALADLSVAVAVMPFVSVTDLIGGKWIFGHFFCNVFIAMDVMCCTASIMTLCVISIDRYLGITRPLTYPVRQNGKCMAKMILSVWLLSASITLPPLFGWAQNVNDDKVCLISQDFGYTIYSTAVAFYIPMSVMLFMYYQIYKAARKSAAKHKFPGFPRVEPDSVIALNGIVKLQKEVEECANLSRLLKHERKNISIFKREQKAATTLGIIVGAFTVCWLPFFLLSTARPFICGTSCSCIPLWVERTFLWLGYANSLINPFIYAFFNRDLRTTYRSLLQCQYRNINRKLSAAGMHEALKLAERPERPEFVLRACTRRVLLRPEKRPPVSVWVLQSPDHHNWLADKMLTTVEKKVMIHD
compound,measurement,setting,value
"COc1ccc(N(C)c2nc(C)nc3ccccc23)cc1 [MPC-6827, N-(4-methoxyphenyl)-N,2-dimethylquinazolin-4-amine]",Ki,CB1,> 10 µM
same,Ki,mGluR,> 10 µM
same,Ki,5-HT2A,> 10 µM
same,Ki,"D1, D2",> 10 µM
same,Ki,PKC,> 10 µM
same,Ki,β2,> 10 µM
same,binding to a panel / variety of kinases,panel of kinases,did not show binding
same,Ki,Ca++ channel,> 10 µM
same,Ki,"H3, H4",> 10 µM
same,Ki,5-HT1A,> 10 µM
same,Ki,Na+ Channel,> 10 µM
same,Ki,D3,> 10 µM
same,Ki,EP,> 10 µM
same,Ki,NK,> 10 µM
same,Ki,H2,0.155 µM
same,Ki,KA,> 10 µM
same,Ki,D4,> 10 µM
same,Ki,NMDA,> 10 µM
same,Ki,VMAT,> 10 µM
same,Ki,Sigma1,0.426 µM
same,Ki,5-HT2C,> 10 µM
same,Ki,I,> 10 µM
same,Ki,5-HT1D,> 10 µM
same,Ki,α2B,> 10 µM
same,Ki,α2A,> 10 µM
same,Ki,V1-2,> 10 µM
same,Ki,α1A-1C,> 10 µM
same,competition at microtubule binding sites,microtubules (MTs),"compete with paclitaxel and colchicine, but not with vinblastine"
same,Ki,Adenosine,> 10 µM
same,Ki,MOR,6.48 µM
same,Ki,CB2,> 10 µM
same,Ki,5-HT3,> 10 µM
same,Ki,AMPA,> 10 µM
same,Ki,5-HT1B,> 10 µM
same,Ki,D5,> 10 µM
same,Ki,variety of brain targets,> 10 µM
same,Ki,5-HT1E,> 10 µM
same,Ki,BZP,> 10 µM
same,Ki,NT,> 10 µM
same,Ki,β3,> 10 µM
same,Ki,5-HT7,> 10 µM
same,Ki,5-HT2B,> 10 µM
same,Ki,GABA,> 10 µM
same,Ki,α2C,> 10 µM
same,Ki,M,> 10 µM
same,Ki,β1,> 10 µM
COc1ccc(N(C)c2nc(C)nc3ccccc23)cc1 [[^11C]MPC-6827],uptake and specific binding,[1],excellent uptake and specific binding
same,binding site on microtubules,MDA-MB-231 cells,binds to taxane and colchicine binding sites of microtubules
same,incubation time to equilibrium binding,MDA-MB-231 cells,60 min
same,specific binding,MDA-MB-231 cells; with 5 μM MPC-6827,95%
same,specific binding,MDA-MB-231 cells; with 5 μM MTA HD-800,95%
same,specific binding,MDA-MB-231 cells; with 5 μM colchicine,65%
same,specific binding,MDA-MB-231 cells; with 5 μM docetaxel,88%
same,specific binding,MDA-MB-231 cells; with 5 μM paclitaxel,78%
same,logP,[2],3.8
same,uptake and specific binding,[3],excellent uptake and specific binding
same,lower binding (brain activity) vs control mice,[4],~35%
same,lower binding of radiotracer in the whole brain vs wild type controls,[5],40%
same,uptake and specific binding,glioblastoma PDX cells,excellent uptake and specific binding
same,brain uptake / BBB penetration,"brain MT [6]; microPET, nude mice, baseline",excellent brain uptake; also recorded: penetrates the blood brain barrier (BBB) with excellent retention
same,blocking of brain uptake,brain MT [6]; pre-administration of 5 mg/kg MPC-6827 and 5 mg/kg HD-800 (i.v.),substantially blocked
same,BBB penetration and retention in brain,rat brain,BBB penetration and excellent retention
same,stable in 5% ethanol-saline formulation,[7],4 h
same,BBB penetration and brain retention,"brain MT [8]; biodistribution, white male mice",penetrated the BBB and was retained in the brain
same,specific binding in brain,"brain MT [8]; mice, 30 minutes, blocking with 5 mg/kg MPC-6827",70%
same,brain SUV,"brain MT [8]; mice, compared with established PET tracers",higher than that of the established brain PET/periphery PET tracers
